Results: BindingDB's records for doi:10.1016/j.bmcl.2011.03.071 (University of Canterbury, 2011)
pKi: −log10 of the molar value.

Target: Phospho-2-dehydro-3-deoxyheptonate aldolase (Escherichia coli, UniProt C3TIE2)
Test: Competitive inhibition of recombinant Escherichia coli DAH7P synthase using PEP as substrate by Michaelis-Menten equation analysis using UV-visible spectrophotometry

Chain of Phospho-2-dehydro-3-deoxyheptonate aldolase (C3TIE2 1-350): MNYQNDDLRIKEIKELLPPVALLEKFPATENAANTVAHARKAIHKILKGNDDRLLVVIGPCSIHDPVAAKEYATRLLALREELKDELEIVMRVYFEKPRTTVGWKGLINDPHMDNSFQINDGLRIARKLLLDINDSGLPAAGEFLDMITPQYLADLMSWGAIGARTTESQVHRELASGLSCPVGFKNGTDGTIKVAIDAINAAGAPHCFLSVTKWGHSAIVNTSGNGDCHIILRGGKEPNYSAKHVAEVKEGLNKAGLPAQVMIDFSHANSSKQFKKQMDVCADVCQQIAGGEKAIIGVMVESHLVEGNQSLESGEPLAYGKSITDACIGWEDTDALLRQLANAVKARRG

pKi: 3.81
SMILES: O=C(O)C(=CCCCCOP(=O)(O)O)CP(=O)(O)O
